Here are results for twelve compounds from patent US20250339569A1, “CARBONIC ANHYDRASE IX LIGANDS” (priority 2021, published 2025).

Assay [1] deals with T1, human carbonic anhydrase IX (hCAIX-Fc) (Homo sapiens, UniProt Q16790).
T1 construct: purchased SinoBliological (Sino Biological) 10107-H02H
Nature of the assay: Surface plasmon resonance assay with hCAIX-Fc. It counts as binding. As to conditions: 25° C.; for t1/2 category (activity): SPR dissociation half-life, hCAIX-Fc; for Kd: SPR, hCAIX-Fc captured, read-out: pKD category (activity) (converted). The method, then:
Surface plasmon resonance (SPR) studies were performed using a Biacore™ T200 SPR system (GE Healthcare Life Sciences). Briefly, polarized light is directed towards a gold-labeled sensor surface, and minimum intensity reflected light is detected. The angle of reflected light changes as molecules bind and dissociate.
Fc-fusion protein of human carbonic anhydrase IX (hCAIX-Fc, SinoBliological, Cat #10107-H02H) was captured on a Fc-capture chip (Biacore™ CM5 sensor chip coated with ˜300 RU of an Fc-binding peptide). Recombinant carbonic anydrase was diluted in Running Buffer (PBST, 0.1% DMSO) to a final concentration 100 or 200 nM and than flushed over the Fc-capture chip to immobilized ˜1000 RUs.
Stock solutions of test compounds were prepared by dissolving each compound in DMSO. DMSO stock solution were diluted 1:1000 in Running Buffer without DMSO. Further sequencial dilutions were made with Running Buffer containing 0.1% DMSO. SPR binding analyses were performed in Single Cycle Kinetic (SCK) mode at 25° C. Flow cell coated with the Fc-binding peptide only served as reference flowcell. After each SCK run, carbonic andydrase IX was removed with 10 mM glycine buffer, pH 1.5.
In between every three SCK measurements, a blank run with Running Buffer instead of test compound was included to correct for baseline drifts (double blanking methods).
Table 11 describes the protocol steps for Fc-fusion target capturing and assessment of the binding kinetics.
For each test compound, SPR raw data in the form of resonance units (RU) were plotted as sensorgrams using the Biacore™ T200 control software. The signal from the blank sensorgram was subtracted from that of the test compound sensorgram (blank corrected). The blank corrected sensorgram was corrected for baseline drift by subtracting the sensorgram of a SCK run without the test compound (running buffer only). The association rate (kon), dissociation rate (koff), dissociation constant (KD), and t1/2 were calculated from Blank-normalized SPR data using the 1:1 Langmuir binding model from the Biacore™ T200 evaluation software. Raw data and fit results were imported as text files in IDBS. The pKD value (negative decadic logarithm of dissociation constant) was calculated in the IDBS excel template.

In assay [2] the target is T2, CAIX-expressing human HT-29 colorectal cancer cells (Homo sapiens, UniProt Q16790).
T2 construct: CAIX-expressing human HT-29 colorectal cancer cells; host or cells: HT-29 human colorectal cancer cells
Briefly: FACS binding assay (IC50 determination, competition with tracer 3BP-2776 or 3BP-4149). The note with it: FACS competition on HT-29 cells, Tracer ID 3BP-2776 (10 nM, biotin-labeled), 4° C., 1 hour; read-out: pIC50 category (activity) (converted). The gist of the method: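 HT-29 cells in FACS buffer (PBS, 1% FCS) at 500.000 cells/ml were exposed to compounds competing with a labelled tracer, with biotinylated compounds detected by 1 μg/mL APC-streptavidin for 30 min on ice. APC/Cy5 median fluorescence was read by flow cytometry and IC50 derived by 4PL fit.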
On the technique in general: In flow cytometry, cells or beads pass a laser one at a time.

Starred links: 1 amine or outer side, 2 acyl side, 3 side chain; linkers in the order of their positions; H or OH if unused. Positions of bridges follow the written chain, without caps; N, C: chain ends. Non-standard residues stand in square brackets, D forms with d. Residues, ends and D or L forms follow the SMILES beside them. *: point of attachment. X3 = O=C(O)CN1CCN(CC(=O)O)CCN(CC(=O)NCCCOCCOCCOCCCN*)CCN(CC(=O)O)CC1; DOTA = O=C(O)CN1CCN(CC(=O)O)CCN(CC(=O)*)CCN(CC(=O)O)CC1; Trp(5-Cl) = N[C@@H](Cc1c[nH]c2ccc(Cl)cc12)C(=O)O; Phe(3,4-Cl2) = N[C@@H](Cc1ccc(Cl)c(Cl)c1)C(=O)O; mXylylene = c1cc(C[*:1])cc(C[*:2])c1; Bta = N[C@@H](Cc1csc2ccccc12)C(=O)O; X2 = O=C(CN1CCC(N[*:1])CC1)[*:2]; Suc = O=C(CCC(=O)[*:2])[*:1]; dPip = O=C(O)[C@H]1CCCCN1; dNMeA = CN[C@H](C)C(=O)O; Dap = NC[C@H](N)C(=O)O; Sar = CNCC(=O)O A value given as a limit tells only on which side of the number the result lay.

On to `CC(C)C[C@@H]1NC(=O)[C@H](Cc2c[nH]c3ccccc23)NC(=O)[C@H](CC(=O)O)NC(=O)CN(C)C(=O)[C@H](CCC(=O)O)NC(=O)[C@@H](NC(=O)[C@H](Cc2ccc(O)cc2)NC(=O)[C@@H](NC(=O)CCC(=O)NCCCOCCOCCOCCCNC(=O)CN2CCN(CC(=O)O)CCN(CC(=O)O)CCN(CC(=O)O)CC2)C(C)C)CSCc2cccc(c2)CSC[C@@H](C(N)=O)NC(=O)[C@H](CCC(N)=O)NC(=O)[C@H](Cc2c[nH]c3ccccc23)NC(=O)[C@H]([C@@H](C)O)NC1=O` [3BP-3271] ({X3-Suc}-VYCE[Sar]DWLTWQC-NH2; linker 3-12 via mXylylene), for which, in assay [1], the “t1/2 category (activity)” value is “C (t1/2 between 2.1 and 5.0 minutes)”; the Kd was less than 0.01 µM. In addition, the IC50 in assay [2] was less than 0.01 µM.

For the compound `CC(C)C[C@@H]1NC(=O)[C@H](Cc2c[nH]c3ccccc23)NC(=O)[C@H](CC(=O)O)NC(=O)CNC(=O)[C@H](CCC(=O)O)NC(=O)[C@@H](NC(=O)[C@H](Cc2ccc(O)cc2)NC(=O)[C@@H](NC(=O)CCC(=O)NCCCOCCOCCOCCCNC(=O)CN2CCN(CC(=O)O)CCN(CC(=O)O)CCN(CC(=O)O)CC2)C(C)C)CSCc2cccc(c2)CSC[C@@H](C(N)=O)NC(=O)[C@H](C)NC(=O)[C@H](Cc2c[nH]c3ccccc23)NC(=O)[C@H]([C@@H](C)O)NC1=O` [3BP-3272] ({X3-Suc}-VYCEGDWLTWAC-NH2; linker 3-12 via mXylylene), in assay [1], the “t1/2 category (activity)” value is “C (t1/2 between 2.1 and 5.0 minutes)”; the Kd was less than 0.01 µM. Further, the IC50 in assay [2] was less than 0.01 µM.

Turning to `CC(C)C[C@@H]1NC(=O)[C@H](Cc2c[nH]c3ccccc23)NC(=O)[C@H](CC(=O)O)NC(=O)[C@@H](C)NC(=O)[C@H](CCC(=O)O)NC(=O)[C@@H](NC(=O)[C@H](Cc2ccc(O)cc2)NC(=O)[C@@H](NC(=O)CCC(=O)NCCCOCCOCCOCCCNC(=O)CN2CCN(CC(=O)O)CCN(CC(=O)O)CCN(CC(=O)O)CC2)C(C)C)CSCc2cccc(c2)CSC[C@@H](C(N)=O)NC(=O)[C@H](C)NC(=O)[C@H](Cc2c[nH]c3ccccc23)NC(=O)[C@H]([C@@H](C)O)NC1=O` [3BP-3279] ({X3-Suc}-VYCE[dA]DWLTWAC-NH2; linker 3-12 via mXylylene), in assay [1], the “t1/2 category (activity)” value is “B (t1/2 between 5.1 and 15.0 minutes)”; the Kd was less than 0.01 µM. Further, the IC50 in assay [2] is less than 0.01 µM.

On to `CC(=O)N[C@H](C(=O)N[C@@H](Cc1ccc(O)cc1)C(=O)N[C@H]1CSCc2cccc(c2)CSC[C@@H](C(N)=O)NC(=O)[C@H](C)NC(=O)[C@H](Cc2c[nH]c3ccccc23)NC(=O)[C@H]([C@@H](C)O)NC(=O)[C@H](CC(C)C)NC(=O)[C@H](Cc2c[nH]c3ccccc23)NC(=O)[C@H](CC(=O)O)NC(=O)[C@@H](C)NC(=O)[C@H](CCC(=O)O)NC1=O)C(C)C` [3BP-3280] (Ac-VYCE[dA]DWLTWAC-NH2; linker 3-12 via mXylylene), for which, in assay [1], the “t1/2 category (activity)” value is “B (t1/2 between 5.1 and 15.0 minutes)”; the Kd is less than 0.01 µM. The IC50 in assay [2] is less than 0.01 µM.

In the case of `CC(=O)N[C@H](C(=O)N[C@@H](Cc1ccc(O)cc1)C(=O)N[C@H]1CSCc2cccc(c2)CSC[C@@H](C(N)=O)NC(=O)[C@H](C)NC(=O)[C@H](Cc2c[nH]c3ccccc23)NC(=O)[C@H]([C@@H](C)O)NC(=O)[C@H](CC(C)C)NC(=O)[C@H](Cc2c[nH]c3ccccc23)NC(=O)[C@H](CC(=O)O)NC(=O)[C@@H](C)N(C)C(=O)[C@H](CCC(=O)O)NC1=O)C(C)C` [3BP-3281] (Ac-VYCE[dNMeA]DWLTWAC-NH2; linker 3-12 via mXylylene), the Kd in assay [1] was less than 0.01 µM. For the same compound, in assay [2], the IC50 is less than 0.01 µM.

For the compound `CC(=O)N[C@H](C(=O)N[C@@H](Cc1ccc(O)cc1)C(=O)N[C@H]1CSCc2cccc(c2)CSC[C@@H](C(N)=O)NC(=O)[C@H](C)NC(=O)[C@H](Cc2c[nH]c3ccccc23)NC(=O)[C@H]([C@@H](C)O)NC(=O)[C@H](CC(C)C)NC(=O)[C@H](Cc2c[nH]c3ccccc23)NC(=O)[C@H](CC(=O)O)NC(=O)[C@H]2CCCCN2C(=O)[C@H](CCC(=O)O)NC1=O)C(C)C` [3BP-3283] (Ac-VYCE[dPip]DWLTWAC-NH2; linker 3-12 via mXylylene), in assay [1], the Kd was less than 0.01 µM. Moreover, the IC50 in assay [2] was less than 0.01 µM.

As for `CC(=O)N[C@H](C(=O)N[C@@H](Cc1ccc(O)cc1)C(=O)N[C@H]1CSCc2cccc(c2)CSC[C@@H](C(N)=O)NC(=O)[C@H](CCC(N)=O)NC(=O)[C@H](Cc2c[nH]c3ccccc23)NC(=O)[C@H]([C@@H](C)O)NC(=O)[C@H](CC(C)C)NC(=O)[C@H](Cc2c[nH]c3ccc(Cl)cc23)NC(=O)[C@H](CC(=O)O)NC(=O)CN(C)C(=O)[C@H](CCC(=O)O)NC1=O)C(C)C` [3BP-3289] (Ac-VYCE[Sar]D[Trp(5-Cl)]LTWQC-NH2; linker 3-12 via mXylylene), in assay [1], the “t1/2 category (activity)” value was “B (t1/2 between 5.1 and 15.0 minutes)”; the Kd is less than 0.01 µM. In addition, in assay [2], the IC50 is less than 0.01 µM.

On to `CC(=O)N[C@H](C(=O)N[C@@H](Cc1ccc(O)cc1)C(=O)N[C@H]1CSCc2cccc(c2)CSC[C@@H](C(N)=O)NC(=O)[C@H](CCC(N)=O)NC(=O)[C@H](Cc2c[nH]c3ccccc23)NC(=O)[C@H]([C@@H](C)O)NC(=O)[C@H](CC(C)C)NC(=O)[C@H](Cc2csc3ccccc23)NC(=O)[C@H](CC(=O)O)NC(=O)CN(C)C(=O)[C@H](CCC(=O)O)NC1=O)C(C)C` [3BP-3311] (Ac-VYCE[Sar]D[Bta]LTWQC-NH2; linker 3-12 via mXylylene), for which, in assay [1], the “t1/2 category (activity)” value is “C (t1/2 between 2.1 and 5.0 minutes)”; the Kd is less than 0.01 µM. For the same compound, in assay [2], the IC50 is less than 0.01 µM.

Turning to `CC(=O)N[C@H](C(=O)N[C@@H](Cc1ccc(O)cc1)C(=O)N[C@H]1CSCc2cccc(c2)CSC[C@@H](C(N)=O)NC(=O)[C@H](C)NC(=O)[C@H](Cc2c[nH]c3ccccc23)NC(=O)[C@H]([C@@H](C)O)NC(=O)[C@H](CC(C)C)NC(=O)[C@H](Cc2c[nH]c3ccccc23)NC(=O)[C@H](CC(=O)O)NC(=O)CN(C)C(=O)[C@H](CCC(=O)O)NC1=O)C(C)C` [3BP-3313] (Ac-VYCE[Sar]DWLTWAC-NH2; linker 3-12 via mXylylene), in assay [1], the “t1/2 category (activity)” value is “C (t1/2 between 2.1 and 5.0 minutes)”; the Kd was less than 0.01 µM. The IC50 in assay [2] is less than 0.01 µM.

For the compound `CC(C)C[C@@H]1NC(=O)[C@H](Cc2c[nH]c3ccccc23)NC(=O)[C@H](CC(=O)O)NC(=O)CNC(=O)[C@H](CCC(=O)O)NC(=O)[C@@H](NC(=O)[C@H](Cc2ccc(O)cc2)NC(=O)[C@@H](NC(=O)CCC(=O)NCCCOCCOCCOCCCNC(=O)CN2CCN(CC(=O)O)CCN(CC(=O)O)CCN(CC(=O)O)CC2)C(C)C)CSCc2cccc(c2)CSC[C@@H](C(N)=O)NC(=O)[C@H](CCC(N)=O)NC(=O)[C@H](Cc2c[nH]c3ccccc23)NC(=O)[C@H]([C@@H](C)O)NC1=O` [3BP-3328] ({X3-Suc}-VYCEGDWLTWQC-NH2; linker 3-12 via mXylylene), the Kd in assay [1] was less than 0.01 µM.

Consider `CC(=O)N[C@H](C(=O)N[C@@H](Cc1ccc(O)cc1)C(=O)N[C@H]1CSCc2cccc(c2)CSC[C@@H](C(N)=O)NC(=O)[C@H](CO)NC(=O)[C@H](Cc2c[nH]c3ccccc23)NC(=O)[C@H]([C@@H](C)O)NC(=O)[C@H](CC(C)C)NC(=O)[C@H](Cc2c[nH]c3ccccc23)NC(=O)[C@H](CC(=O)O)NC(=O)[C@H]2CCCN2C(=O)[C@H](CCC(=O)O)NC1=O)C(C)C` [3BP-3565] (Ac-VYCE[dP]DWLTWSC-NH2; linker 3-12 via mXylylene), for which, in assay [1], the “t1/2 category (activity)” value is recorded as “A (t1/2>15.0 minutes)” and the Kd is less than 0.01 µM. For the same compound, the IC50 in assay [2] is less than 0.01 µM.

Regarding `CC(C)C[C@@H]1NC(=O)[C@H](Cc2ccc(Cl)c(Cl)c2)NC(=O)[C@H](CC(=O)O)NC(=O)[C@H]2CCCN2C(=O)[C@H](CCC(=O)O)NC(=O)[C@@H]2CSCc3cccc(c3)CSC[C@@H](C(N)=O)NC(=O)[C@H](CNC(=O)C[C@H](NC(=O)[C@@H](NC(=O)CN3CCC(NC(=O)CN4CCN(CC(=O)O)CCN(CC(=O)O)CCN(CC(=O)O)CC4)CC3)C(C)C)C(=O)N2)NC(=O)[C@H](Cc2c[nH]c3ccccc23)NC(=O)[C@H]([C@@H](C)O)NC1=O` [3BP-4439] ({DOTA}-[X2]VDCE[dP]D[Phe(3,4-Cl2)]LTW[Dap]C-NH2; lactam 3-12; linker 4-13 via mXylylene), in assay [1], the “t1/2 category (activity)” value is “B (t1/2 between 5.1 and 15.0 minutes)”; the Kd is less than 0.01 µM.
